How the values were obtained:
PSMA = biological target: T1, PSMA (Homo sapiens, UniProt Q04609); assay: In vitro competition binding assay on LNCaP cells with ^18F-DCFPyL as radioligand
T1 construct: because it expresses PSMA endogenously and is commonly used to evaluate PSMA-targeting radiotracers; endogenous in cells; host or cells: LNCaP cells
Experimental: LNCaP cells were plated onto a 24-well poly-D-lysine coated plate for 48 h (400,000/well). […] Nonspecific binding was determined in the presence of 10 μM unlabeled DCFPyL. The assay mixtures were incubated for 1 h at 37°C with gentle agitation followed by 2 washes with cold HEPES buffered saline. A trypsin solution (0.25%, 400 μL) was then added to each well to harvest the cells. Radioactivity was measured by γ-counting, and Ki values were calculated using the “1 site—fit Ki” built-in model in Prism 7 (GraphPad).

[1] = Distribution coefficient (LogD7.4), shake flask method; type: physicochemical; conditions: n-octanol / phosphate buffer 0.1 M pH 7.4; n = 3
Experimental: LogD7.4 values were measured using the shake flask method. Briefly, an aliquot of ^18F-labeled tracer was added to a vial containing 2.5 mL of n-octanol and 2.5 mL of phosphate buffer (0.1 M, pH 7.4). The mixture was vortexed for 2 min and then centrifuged at 3,000g for 10 min. A sample of the n-octanol (0.1 mL) and buffer (0.1 mL) layers was counted using a γ-counter. Values of LogD7.4 were calculated using the following equation: LogD7.4 = log10 [(counts in n-octanol phase)/(counts in buffer phase)].

LNCaP xenografts = assay: Ex vivo biodistribution and blocking studies in mice bearing LNCaP xenografts; conditions: for tumor uptake: LNCaP tumor
Experimental: Imaging and biodistribution experiments were performed using NODSCID IL2RγKO male mice. All experiments were conducted according to the guidelines established by the Canadian Council on Animal Care and approved by the Animal Ethics Committee of the University of British Columbia. Mice were anesthetized by inhalation with 2% isoflurane in oxygen and implanted subcutaneously with 1 × 10^7 LNCaP cells behind the left shoulder. The mice were imaged or used in biodistribution studies once the tumor reached 5–8 mm in diameter (5–6 wk).
For biodistribution and blocking studies, the mice were injected with 1–3 MBq of radiotracer. At 60 min, the mice were anesthetized with 2% isoflurane inhalation and euthanized by CO2 inhalation. Blood was withdrawn by cardiac puncture, and the organs and tissues of interest were collected, weighed, and counted using an automatic γ-counter (PerkinElmer). Uptake values were expressed as the percentage of the injected dose per gram of tissue (%ID/g).
A standard 1-way ANOVA was performed to determine whether statistically significant differences in tumor uptake occurred between radiotracers. Each radiotracer was compared with ^18F-DCFPyL using the Dunnett test (a many-to-one t test comparison). This analysis was also performed for kidney and blood activity and for tumor-to-blood and tumor-to-muscle ratios. Reported P values were adjusted for multiple comparisons. The analysis was performed using Prism 8 (GraphPad). […]
Statistical analyses were performed using GradPad prism 7. Multiple t tests were performed to compare biodistribution in unblocked and blocked mice, multiple comparisons were corrected using the Holm-Sidak method. The difference was considered statistically significant when p value was < 0.05.
Supplemental Table 1 – Complete biodistribution study for compounds [18F]1–3 […]
Tissue 1h 1h blocked 1h 1h blocked 1h 1h blocked
(%ID/g) n = 8 n = 4 n = 6 n = 4 n = 8 n = 5 […]
(1 picture or pasted object on this page, not shown here)

[2] = 1 h after injection, 1-way ANOVA, Dunnett test
[3] = 1 h blocked (coinjection of DCFPyL 0.5 mg)

T1 sequence (Q04609 whole entry): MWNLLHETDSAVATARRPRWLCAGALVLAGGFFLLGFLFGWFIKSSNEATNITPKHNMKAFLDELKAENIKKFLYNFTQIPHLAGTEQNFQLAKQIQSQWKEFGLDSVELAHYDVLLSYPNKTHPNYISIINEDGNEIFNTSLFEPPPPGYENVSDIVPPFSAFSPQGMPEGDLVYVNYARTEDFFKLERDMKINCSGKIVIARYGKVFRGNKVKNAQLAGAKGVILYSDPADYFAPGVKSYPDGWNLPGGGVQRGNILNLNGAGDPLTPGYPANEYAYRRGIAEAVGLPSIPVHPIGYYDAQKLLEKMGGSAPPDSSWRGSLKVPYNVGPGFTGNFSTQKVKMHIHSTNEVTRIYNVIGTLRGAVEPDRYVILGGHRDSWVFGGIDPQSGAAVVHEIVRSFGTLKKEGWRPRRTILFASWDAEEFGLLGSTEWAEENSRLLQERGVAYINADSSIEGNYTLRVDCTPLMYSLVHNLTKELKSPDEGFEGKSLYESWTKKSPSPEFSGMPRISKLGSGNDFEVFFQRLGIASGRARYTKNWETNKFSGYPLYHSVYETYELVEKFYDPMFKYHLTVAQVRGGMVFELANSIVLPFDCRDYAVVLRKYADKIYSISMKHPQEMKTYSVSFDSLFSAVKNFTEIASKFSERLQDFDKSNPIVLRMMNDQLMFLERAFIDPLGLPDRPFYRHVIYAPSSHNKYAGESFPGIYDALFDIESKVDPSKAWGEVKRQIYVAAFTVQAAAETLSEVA

Structure (SMILES): C[N+](C)(Cc1cn(Cc2ccc(C(=O)NCCCC[C@H](NC(=O)N[C@@H](CCC(=O)O)C(=O)O)C(=O)O)cn2)nn1)C[B-](F)(F)F [^18F-3]
- Ki (PSMA): 0.0259 ± 0.0057 µM
- logD at 2 min [1]: -4.01 ± 0.14
- T/B (tumor-to-blood ratio) (LNCaP xenografts; 1 h after injection, unblocked): 9.68 ± 4.53
- T/K (tumor-to-kidney ratio) (LNCaP xenografts; 1 h after injection, unblocked): 0.11 ± 0.08
- T/M (tumor-to-muscle ratio) (LNCaP xenografts; 1 h after injection, unblocked): 29.00 ± 12.40
- adrenal uptake (LNCaP xenografts; 1 h after injection, unblocked): 1.35 ± 0.52 %ID/g
- blood uptake (LNCaP xenografts; 1 h after injection, unblocked): 0.50 ± 0.16 %ID/g
- bone uptake (LNCaP xenografts; 1 h after injection, unblocked): 0.20 ± 0.06 %ID/g
- brain uptake (LNCaP xenografts; 1 h after injection, unblocked): 0.03 ± 0.01 %ID/g
- fat uptake (LNCaP xenografts; 1 h after injection, unblocked): 0.35 ± 0.15 %ID/g
- heart uptake (LNCaP xenografts; 1 h after injection, unblocked): 0.19 ± 0.07 %ID/g
- intestine uptake (LNCaP xenografts; 1 h after injection, unblocked): 0.28 ± 0.07 %ID/g
- kidney uptake (LNCaP xenografts; 1 h after injection, unblocked): 51.80 ± 24.10 %ID/g
- liver uptake (LNCaP xenografts; 1 h after injection, unblocked): 1.17 ± 0.28 %ID/g
- lung uptake (LNCaP xenografts; 1 h after injection, unblocked): 0.66 ± 0.19 %ID/g
- muscle uptake (LNCaP xenografts; 1 h after injection, unblocked): 0.17 ± 0.07 %ID/g
- pancreas uptake (LNCaP xenografts; 1 h after injection, unblocked): 0.27 ± 0.13 %ID/g
- spleen uptake (LNCaP xenografts; 1 h after injection, unblocked): 0.84 ± 0.52 %ID/g
- stomach uptake (LNCaP xenografts; 1 h after injection, unblocked): 0.08 ± 0.04 %ID/g
- testes uptake (LNCaP xenografts; 1 h after injection, unblocked): 0.30 ± 0.09 %ID/g
- kidney accumulation compared with ^18F-DCFPyL (LNCaP xenografts; [2]): lower kidney accumulation
- tumor uptake compared with ^18F-DCFPyL (LNCaP xenografts; [2]): lower tumor uptake than ^18F-DCFPyL
- T/B (tumor-to-blood ratio) (LNCaP xenografts; [3]): 1.17 ± 0.70
- T/K (tumor-to-kidney ratio) (LNCaP xenografts; [3]): 0.16 ± 0.05
- T/M (tumor-to-muscle ratio) (LNCaP xenografts; [3]): 3.54 ± 1.43
- adrenal uptake (LNCaP xenografts; [3]): 0.24 ± 0.07 %ID/g
- blood uptake (LNCaP xenografts; [3]): 0.30 ± 0.10 %ID/g
- bone uptake (LNCaP xenografts; [3]): 0.16 ± 0.06 %ID/g
- brain uptake (LNCaP xenografts; [3]): 0.02 ± 0.00 %ID/g
- fat uptake (LNCaP xenografts; [3]): 0.16 ± 0.10 %ID/g
- heart uptake (LNCaP xenografts; [3]): 0.12 ± 0.06 %ID/g
- intestine uptake (LNCaP xenografts; [3]): 0.23 ± 0.06 %ID/g
- kidney uptake (LNCaP xenografts; [3]): 2.12 ± 0.73 %ID/g
- liver uptake (LNCaP xenografts; [3]): 1.25 ± 0.17 %ID/g
- lung uptake (LNCaP xenografts; [3]): 0.30 ± 0.11 %ID/g
- muscle uptake (LNCaP xenografts; [3]): 0.09 ± 0.03 %ID/g
- pancreas uptake (LNCaP xenografts; [3]): 0.08 ± 0.03 %ID/g
- spleen uptake (LNCaP xenografts; [3]): 0.09 ± 0.05 %ID/g
- stomach uptake (LNCaP xenografts; [3]): 0.06 ± 0.02 %ID/g
- testes uptake (LNCaP xenografts; [3]): 0.10 ± 0.03 %ID/g
- tumor uptake (LNCaP xenografts; 1 h after injection, unblocked, listed as 3): 4.4 ± 0.95 %ID/g
- tumor uptake (LNCaP xenografts; 1 h after injection, unblocked, listed as [18F]3): 4.36 ± 0.95 %ID/g
- tumor uptake (LNCaP xenografts; [3]): 0.35 ± 0.21 %ID/g

Structure (SMILES): O=C(O)CC[C@H](NC(=O)N[C@@H](CCCCNC(=O)c1ccc(Cn2cc(C[n+]3ccc([B-](F)(F)F)cc3)nn2)nc1)C(=O)O)C(=O)O [^18F-4]
- Ki (PSMA): 0.0276 ± 0.0038 µM
- logD at 2 min [1]: -3.34 ± 0.02
- T/B (tumor-to-blood ratio) (LNCaP xenografts; 1 h after injection, unblocked): 8.70 ± 1.74
- T/K (tumor-to-kidney ratio) (LNCaP xenografts; 1 h after injection, unblocked): 0.04 ± 0.02
- T/M (tumor-to-muscle ratio) (LNCaP xenografts; 1 h after injection, unblocked): 23.40 ± 5.00
- adrenal uptake (LNCaP xenografts; 1 h after injection, unblocked): 6.66 ± 2.33 %ID/g
- blood uptake (LNCaP xenografts; 1 h after injection, unblocked): 0.74 ± 0.15 %ID/g
- bone uptake (LNCaP xenografts; 1 h after injection, unblocked): 0.76 ± 0.57 %ID/g
- brain uptake (LNCaP xenografts; 1 h after injection, unblocked): 0.05 ± 0.01 %ID/g
- fat uptake (LNCaP xenografts; 1 h after injection, unblocked): 1.05 ± 0.49 %ID/g
- heart uptake (LNCaP xenografts; 1 h after injection, unblocked): 0.34 ± 0.08 %ID/g
- intestine uptake (LNCaP xenografts; 1 h after injection, unblocked): 0.48 ± 0.22 %ID/g
- kidney uptake (LNCaP xenografts; 1 h after injection, unblocked): 164.33 ± 50.20 %ID/g
- liver uptake (LNCaP xenografts; 1 h after injection, unblocked): 1.28 ± 0.18 %ID/g
- lung uptake (LNCaP xenografts; 1 h after injection, unblocked): 1.67 ± 0.47 %ID/g
- muscle uptake (LNCaP xenografts; 1 h after injection, unblocked): 0.28 ± 0.07 %ID/g
- pancreas uptake (LNCaP xenografts; 1 h after injection, unblocked): 0.68 ± 0.50 %ID/g
- spleen uptake (LNCaP xenografts; 1 h after injection, unblocked): 3.36 ± 1.08 %ID/g
- stomach uptake (LNCaP xenografts; 1 h after injection, unblocked): 0.15 ± 0.03 %ID/g
- testes uptake (LNCaP xenografts; 1 h after injection, unblocked): 0.67 ± 0.27 %ID/g
- tumor uptake compared with ^18F-DCFPyL (LNCaP xenografts; [2]): lower tumor uptake than ^18F-DCFPyL
- T/B (tumor-to-blood ratio) (LNCaP xenografts; [3]): 0.75 ± 0.18
- T/K (tumor-to-kidney ratio) (LNCaP xenografts; [3]): 0.11 ± 0.03
- T/M (tumor-to-muscle ratio) (LNCaP xenografts; [3]): 1.91 ± 0.46
- adrenal uptake (LNCaP xenografts; [3]): 0.26 ± 0.15 %ID/g
- blood uptake (LNCaP xenografts; [3]): 0.24 ± 0.11 %ID/g
- bone uptake (LNCaP xenografts; [3]): 0.56 ± 0.20 %ID/g
- brain uptake (LNCaP xenografts; [3]): 0.02 ± 0.01 %ID/g
- fat uptake (LNCaP xenografts; [3]): 0.04 ± 0.03 %ID/g
- heart uptake (LNCaP xenografts; [3]): 0.09 ± 0.04 %ID/g
- intestine uptake (LNCaP xenografts; [3]): 0.18 ± 0.04 %ID/g
- kidney uptake (LNCaP xenografts; [3]): 1.62 ± 0.73 %ID/g
- liver uptake (LNCaP xenografts; [3]): 0.90 ± 0.25 %ID/g
- lung uptake (LNCaP xenografts; [3]): 0.19 ± 0.09 %ID/g
- muscle uptake (LNCaP xenografts; [3]): 0.11 ± 0.08 %ID/g
- pancreas uptake (LNCaP xenografts; [3]): 0.08 ± 0.03 %ID/g
- spleen uptake (LNCaP xenografts; [3]): 0.13 ± 0.06 %ID/g
- stomach uptake (LNCaP xenografts; [3]): 0.06 ± 0.02 %ID/g
- testes uptake (LNCaP xenografts; [3]): 0.08 ± 0.03 %ID/g
- tumor uptake (LNCaP xenografts; 1 h after injection, unblocked, listed as 4): 6.3 ± 0.8 %ID/g
- tumor uptake (LNCaP xenografts; 1 h after injection, unblocked, listed as [18F]4): 6.26 ± 0.82 %ID/g
- tumor uptake (LNCaP xenografts; [3]): 0.18 ± 0.11 %ID/g

Reference: article PMC6681697, “One-Step ^18F-Labeling and Preclinical Evaluation of Prostate-Specific Membrane Antigen Trifluoroborate Probes for Cancer Imaging” (Journal of Nuclear Medicine, 2019)
